Experimental data as given in patent US8470829B2 (priority 2004, dated 2013).
Read-outs that look alike come from different tables or passages of the source.

Tests used:
human androgen receptor [1] = target: T1, human androgen receptor (Homo sapiens, UniProt P10275); test: Measurement of agonist effect on androgen receptor (reporter gene assay, 11A11B2 cells); format: cell-based; settings: compound concentration showing a transcription activity of 5% (0.1 nmol/L DHT = 100%, assay medium alone = 0%), 48 hours
T1 construct: expressed in transfected cells
T1 sequence (P10275 1-920): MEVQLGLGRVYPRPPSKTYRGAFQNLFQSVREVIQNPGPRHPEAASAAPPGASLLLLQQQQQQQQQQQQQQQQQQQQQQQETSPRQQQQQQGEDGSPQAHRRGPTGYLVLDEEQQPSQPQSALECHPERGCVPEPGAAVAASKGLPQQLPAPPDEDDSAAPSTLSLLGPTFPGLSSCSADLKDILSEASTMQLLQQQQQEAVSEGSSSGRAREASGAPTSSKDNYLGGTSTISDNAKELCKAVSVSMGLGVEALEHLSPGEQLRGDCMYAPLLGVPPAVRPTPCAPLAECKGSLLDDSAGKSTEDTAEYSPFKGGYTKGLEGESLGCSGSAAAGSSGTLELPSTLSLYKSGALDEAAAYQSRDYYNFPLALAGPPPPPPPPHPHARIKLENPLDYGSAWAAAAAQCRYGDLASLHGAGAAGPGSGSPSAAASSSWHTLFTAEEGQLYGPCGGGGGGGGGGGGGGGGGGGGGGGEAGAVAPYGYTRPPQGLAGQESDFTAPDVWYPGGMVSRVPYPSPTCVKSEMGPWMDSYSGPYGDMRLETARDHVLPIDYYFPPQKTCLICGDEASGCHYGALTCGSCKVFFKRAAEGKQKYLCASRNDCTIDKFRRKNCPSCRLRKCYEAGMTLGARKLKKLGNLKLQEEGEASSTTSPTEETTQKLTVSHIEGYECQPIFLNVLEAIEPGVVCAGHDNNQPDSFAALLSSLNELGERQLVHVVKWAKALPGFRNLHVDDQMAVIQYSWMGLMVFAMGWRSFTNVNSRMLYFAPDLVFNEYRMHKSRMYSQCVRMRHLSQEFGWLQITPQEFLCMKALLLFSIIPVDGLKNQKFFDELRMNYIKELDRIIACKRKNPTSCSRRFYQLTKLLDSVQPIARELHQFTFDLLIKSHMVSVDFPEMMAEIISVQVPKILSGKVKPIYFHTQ

androgen receptor = androgen receptor (Homo sapiens, UniProt P10275); settings: at a concentration of 10 μmol/L; cited from earlier work
[2] = prostate cancer patients treated with flutamide; cited from earlier work
human androgen receptor [3] = target: T1, human androgen receptor; test: Investigation of antagonist effect on androgen receptor (reporter gene assay, 11A11B2 cells, with DHT); format: cell-based
castrated rats = settings: continuously administered to castrated rats for two weeks; cited from earlier work
[4] = with 0.1 nmol/L DHT, transcription activity rate of Test Example 1 subtracted, 11A11B2 cells, 48 hours, read-out: IC50

Row | Compound | EC5 (human androgen receptor [1]) [µM] | IC50 (human androgen receptor [3]; [4]) [nM] | IC50 (human androgen receptor [3]) [nM] | also measured
1 | CC(C)(O)C(=O)Nc1ccc([N+](=O)[O-])c(C(F)(F)F)c1 [Comparative Example 4, hydroxyflutamide] | 0.01 |  |  | androgen receptor transcription activity (androgen receptor): increase; concentration in the blood [2]: several
2 | CCOC(=O)Nc1cc(N2C(=O)N(c3ccc(C#N)c(C(F)(F)F)c3)C(=O)C2(C)C)ccc1Cl [Example 13, {2-chloro-5-[3-(4-cyano-3-trifluoromethylphenyl)-5,5-dimethyl-2,4-dioxoimidazolidin-1-yl]phenyl}carbamic acid ethyl ester] | >10 | 200 |  | melting point: 155 to 157 °C
3 | CC1(C)C(=O)N(c2ccc(C#N)c(Cl)c2)C(=S)N1c1ccc2sc(NC(=O)OCC(O)CO)nc2c1 (stereo not drawn) [Example 65, {5-[3-(3-chloro-4-cyanophenyl)-5,5-dimethyl-4-oxo-2-thioxoimidazolidin-1-yl]benzothiazol-2-yl}carbamic acid 2,3-dihydroxypropyl ester] | >10 | 200 |  | 
4 | CC1(C)C(=O)N(c2ccc(C#N)c(Cl)c2)C(=S)N1c1ccc2sc(NC(=O)OCCO)nc2c1 [Example 66, {5-[3-(3-chloro-4-cyanophenyl)-5,5-dimethyl-4-oxo-2-thioxoimidazolidin-1-yl]benzothiazol-2-yl}carbamic acid 2-hydroxyethyl ester] | 6 |  | 100 | 
5 | CC1(C)C(=O)N(c2ccc(C#N)c(Cl)c2)C(=S)N1c1cccc(S(N)(=O)=O)c1 [Example 68, 3-[3-(3-chloro-4-cyanophenyl)-5,5-dimethyl-4-oxo-2-thioxoimidazolidin-1-yl]benzenesulfonamide] | >10 | 400 |  | 
6 | CN(C)CCOC(=O)Nc1ccc(N2C(=S)N(c3ccc(C#N)c(Cl)c3)C(=O)C2(C)C)cn1 [Example 69, {5-[3-(3-chloro-4-cyanophenyl)-5,5-dimethyl-4-oxo-2-thioxoimidazolidin-1-yl]pyridin-2-yl}-carbamic acid 2-dimethylaminoethyl ester] | >10 |  | 500 | 
7 | CC1(C)C(=O)N(c2ccc(C#N)c(C(F)(F)F)c2)C(=S)N1c1ccc(NC(=O)OCC(O)CO)nc1 (stereo not drawn) [Example 70, {5-[3-(4-cyano-3-trifluoromethylphenyl)-5,5-dimethyl-4-oxo-2-thioxoimidazolidin-1-yl]pyridin-2-yl}-carbamic acid 2,3-dihydroxypropyl ester] | >10 |  | 500 | 
8 | CC(=O)O[C@]1(C(C)=O)CC[C@H]2[C@@H]3C=C(Cl)C4=CC(=O)CC[C@]4(C)[C@H]3CC[C@@]21C [chlormadinone acetate] |  |  |  | weight of the prostate gland (castrated rats): increase
9 | CC(=O)O[C@]1(C(C)=O)CC[C@H]2[C@@H]3C=C(Cl)C4=CC(=O)[C@@H]5C[C@@H]5[C@]4(C)[C@H]3CC[C@@]21C [cyproterone acetate] |  |  |  | weight of the prostate gland (castrated rats): increase
